Measurements reported in patent US4196217A, “Hydroxylated amines with bacteriostatic activity” (priority 1978, dated 1980).
In brackets after ≈: the same amount, converted by molar mass. Read-outs that look alike come from different tables or passages of the source.

Legend:
Bacillus subtilis = test: bacteriostatic activity (MIC), Bacillus subtilis; type: cell-based; settings: Bacillus subtilis, 48 h, Table VI, read-out: M.I.C.
Protocol: (§1) The medium containing the solution to be tested is inoculated in the form of three single striae with a 10^-5 times dilution of a bacterial culture aged 16 to 18 hours grown in salted peptone broth at a temperature of 37° C.
(§2) After inoculation, the media are stored at 37° C. for 48 hours, after which the bacterial growth is inspected. The MIC (minimum inhibiting concentrations) are expressed in micrograms of pure product per cubic centimeter of gelose medium required for inhibiting the culture (μg/cc). The control substance used is benzalconium chloride.
(§3) Tests were also carried out to determine the bacteriostatic activity of other compounds according to the invention by the method described above and in comparison with known substances, in particular with benzalconium chloride (compound T in the Tables).

Escherichia coli = test: bacteriostatic activity (MIC), Escherichia coli; type: cell-based; settings: Escherichia coli, 48 h, Table VI, read-out: M.I.C.
Protocol: as §1, §2, §3

Pseudomonas aeruginosa = test: bacteriostatic activity (MIC), Pseudomonas aeruginosa; type: cell-based; settings: Pseudomonas aeruginosa, 48 h, Table VI, read-out: M.I.C.
Protocol: as §1, §2, §3

Staphyloccus aureus = test: bacteriostatic activity (MIC), Staphylococcus aureus; type: cell-based; settings: Staphylococcus aureus, 48 h, Table VI, read-out: M.I.C.
Protocol: as §1, §2, §3

solubility = settings: water
[1] = bacteriostase containing 20% of serum

Row | SMILES | MIC (Bacillus subtilis; [1]) [µg/mL] | MIC (Bacillus subtilis; bacteriostase without serum) [µg/mL] | MIC (Escherichia coli; [1]) [µg/mL] | MIC (Escherichia coli; bacteriostase without serum) [µg/mL] | MIC (Pseudomonas aeruginosa; [1]) [µg/mL] | MIC (Pseudomonas aeruginosa; bacteriostase without serum) [µg/mL] | MIC (Staphyloccus aureus; [1]) [µg/mL] | MIC (Staphyloccus aureus; bacteriostase without serum) [µg/mL] | solubility in water (solubility)
1 | CCCCCCCCCCCCOCC(O)CN.Cl (stereo not drawn) [Compound 2, 3-dodecyloxy-2-hydroxy-1-aminopropane hydrochloride] | 30 | 5 | 100 | 20 | 1200 | 800 | 75 | 10 | –
2 | Br.CCCCCCCCCCOCC(O)CN (stereo not drawn) [Compound 3, 3-decyloxy-2-hydroxy-1-aminopropane hydrobromide] | 50 | 25 | 60 | 30 | 250 | 100 | 75 | 30 | –
3 | CCCCCCCCC(O)CN (stereo not drawn) [Compound 4] | 75 (≈ 433 µM) | 20 (≈ 115 µM) | 200 (≈ 1150 µM) | 125 (≈ 721 µM) | 500 (≈ 2890 µM) | 400 (≈ 2310 µM) | 150 (≈ 866 µM) | 70 (≈ 404 µM) | –
4 | CCCCCCCCCCOCC(O)C[N+](C)(C)C (stereo not drawn) [Compound 5, 3-decyloxy-2-hydroxy-N,N,N-trimethyl-1-ammonium chloride] | 40 | 25 | 200 | 125 | 750 | 600 | 50 | 25 | soluble in water
5 | CCCCCCCCOCC(O)CN.Cl (stereo not drawn) [Compound 6, 3-octyloxy-2-hydroxy-1-aminopropane hydrochloride] | 200 | 150 | 300 | 150 | 500 | 300 | > 250 | > 150 | –
6 | CCCCCCCCCC(O)CN (stereo not drawn) [Compound 7] | 50 (≈ 267 µM) | 30 (≈ 160 µM) | 150 (≈ 801 µM) | 75 (≈ 400 µM) | 500 (≈ 2670 µM) | 200 (≈ 1070 µM) | 150 (≈ 801 µM) | 75 (≈ 400 µM) | –
7 | CCCCCCCCCCCC(O)CN (stereo not drawn) [Compound 8, 2-hydroxy-1-amino tridecane] | 30 (≈ 139 µM) | 3 (≈ 13.9 µM) | 75 (≈ 348 µM) | 10 (≈ 46.4 µM) | > 1500 | > 1000 | 40 (≈ 186 µM) | 20 (≈ 92.9 µM) | –
